Measured values reported in US20180338899A1, “INHIBITORS FOR METHYLATION-RELATED ENZYMES HAT1 AND KAT8” (priority 2015, published 2018).
Counter-ions that a name gives are not always drawn. Like-named read-outs stand apart in the source and are kept apart here.

Tests used:
[1] = cited from earlier work
KAT8 [2] = target: T1, KAT8 (Homo sapiens, UniProt Q9H7Z6); experiment: FDA library screening (analysis service PLEXERA) and binding strength, KAT8
T1 sequence (Q9H7Z6 1-458): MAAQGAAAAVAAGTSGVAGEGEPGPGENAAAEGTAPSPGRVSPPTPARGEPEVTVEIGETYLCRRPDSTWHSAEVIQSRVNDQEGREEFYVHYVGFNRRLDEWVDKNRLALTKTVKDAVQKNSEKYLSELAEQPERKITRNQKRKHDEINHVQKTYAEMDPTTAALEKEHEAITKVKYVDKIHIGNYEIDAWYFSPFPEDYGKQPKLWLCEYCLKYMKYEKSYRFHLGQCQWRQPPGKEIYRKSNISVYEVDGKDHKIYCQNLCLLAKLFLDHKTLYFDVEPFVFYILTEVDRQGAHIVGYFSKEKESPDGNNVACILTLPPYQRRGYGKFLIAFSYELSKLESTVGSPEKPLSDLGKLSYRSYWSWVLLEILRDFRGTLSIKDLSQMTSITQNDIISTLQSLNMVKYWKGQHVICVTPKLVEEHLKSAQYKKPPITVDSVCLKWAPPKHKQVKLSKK
Description: (§1) Medicines containing each as an active ingredient (provided that each medicine has an indication other than that for malignant tumors) have already been commercially available.
(§2) Meanwhile, medicines containing each as an active ingredient (provided that each medicine has an indication other than that for malignant tumors) have already been commercially available.

HAT1 [3] = target: T2, HAT1 (Homo sapiens, UniProt O14929); experiment: FDA library screening (analysis service PLEXERA) and binding strength, HAT1
T2 sequence (O14929 1-419): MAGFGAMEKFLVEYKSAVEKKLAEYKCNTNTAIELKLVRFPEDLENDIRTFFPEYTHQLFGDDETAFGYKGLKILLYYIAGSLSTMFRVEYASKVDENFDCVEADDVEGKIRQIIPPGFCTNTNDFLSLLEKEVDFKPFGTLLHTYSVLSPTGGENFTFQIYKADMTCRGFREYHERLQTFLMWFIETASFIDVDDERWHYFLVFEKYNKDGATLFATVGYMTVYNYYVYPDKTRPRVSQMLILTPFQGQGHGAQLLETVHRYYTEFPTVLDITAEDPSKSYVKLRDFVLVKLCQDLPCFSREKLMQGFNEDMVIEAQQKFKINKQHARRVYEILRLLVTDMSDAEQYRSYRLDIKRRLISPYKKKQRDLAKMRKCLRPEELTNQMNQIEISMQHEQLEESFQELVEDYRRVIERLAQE
Description: as §1, §2

KAT8 [4] = experiment: Inhibitory effect of low-molecular-weight compounds on expression of KAT8 by RT-PCR; type: cell-based; details: FIG. 6
HAT1 [5] = experiment: Inhibitory effect of low-molecular-weight compounds on expression of HAT1 by RT-PCR; type: cell-based; details: FIG. 6
[6] = interview form of commercially available medicine
[7] = interview form, given as percent (external preparation / solution concentration)

Row | Molecule | maximum effective blood concentration (Cmax) [1, 6] | inhibition of function of KAT8 (KAT8 [2]) | inhibition of function of HAT1 (HAT1 [3]) | further results
1 | COCCc1ccc(OCC(O)CNC(C)C)cc1.COCCc1ccc(OCC(O)CNC(C)C)cc1.O=C(O)C(O)C(O)C(=O)O (racemic) [metoprolol-(+,−)(+)-tartrate salt] | 0.077 µg/mL | inhibited only KAT8 |  | 
2 | C=CCc1ccccc1OCC(O)CNC(C)C (centres unmarked) [alprenolol hydrochloride] | 0.12 µg/mL | inhibited function of both HAT1 and KAT8 | inhibited function of both HAT1 and KAT8 | 
3 | NCC[C@H](O)C(=O)N[C@@H]1C[C@H](N)[C@@H](O[C@H]2O[C@H](CN)[C@@H](O)[C@H](O)[C@H]2O)[C@H](O)[C@H]1O[C@H]1O[C@H](CO)[C@@H](O)[C@H](N)[C@H]1O [amikacin hydrate] | 25 µg/mL | inhibited function of both HAT1 and KAT8 | inhibited function of both HAT1 and KAT8 | 
4 | Cc1cc(=O)n(-c2ccccc2)n1C [antipyrine] | 50 µg/mL |  | inhibited only HAT1 | 
5 | C=C1[C@@H]2CC[C@H]3[C@]4(C)C[C@H](O[C@@H]5O[C@H](CO)[C@@H](OS(=O)(=O)O)[C@H](OS(=O)(=O)O)[C@H]5OC(=O)CC(C)C)C[C@@H](C(=O)O)[C@H]4CC[C@]3(C2)[C@@H]1O [atractyloside potassium salt] | 60 µg/mL |  | inhibited only HAT1 | 
6 | CCc1oc2ccccc2c1C(=O)c1cc(Br)c(O)c(Br)c1 [benzbromarone] | 3.1 µg/mL |  | inhibited only HAT1 | 
7 | CC(C)NCC(O)COc1ccc(CCOCC2CC2)cc1 (centres unmarked) [betaxolol hydrochloride] | 0.0418 µg/mL | inhibited function of both HAT1 and KAT8 | inhibited function of both HAT1 and KAT8 | 
8 | CC(C)NCC(O)COc1ccc(COCCOC(C)C)cc1 (centres unmarked) [bisoprolol fumarate] | 0.1 µg/mL | inhibited function of both HAT1 and KAT8 | inhibited function of both HAT1 and KAT8 | 
9 | CCCCNc1cc(C(=O)O)cc(S(N)(=O)=O)c1Oc1ccccc1 [bumetanide] | 0.882 µg/mL | inhibited only KAT8 |  | 
10 | C=CC1=C(C(=O)O)N2C(=O)[C@@H](NC(=O)/C(=N\OCC(=O)O)c3csc(N)n3)[C@H]2SC1 [cefixime] | 3.97 µg/mL |  |  | 
11 | CCN1CCN(C(=O)N[C@@H](C(=O)N[C@@H]2C(=O)N3C(C(=O)O)=C(CSc4nnnn4C)CS[C@H]23)c2ccc(O)cc2)C(=O)C1=O [cefoperazone dihydrate] | 1,000 ng/ml |  |  | 
12 | CCN(CC)C(=O)Nc1ccc(OCC(O)CNC(C)(C)C)c(C(C)=O)c1 (centres unmarked) [celiprolol hydrochloride] | 0.3 µg/mL | inhibited function of both HAT1 and KAT8 | inhibited function of both HAT1 and KAT8 | 
13 | CN(CCCCCCCCCCN(C)C(=O)Oc1cccc([N+](C)(C)C)c1)C(=O)Oc1cccc([N+](C)(C)C)c1 [demecarium bromide] |  | inhibited function of both HAT1 and KAT8 | inhibited function of both HAT1 and KAT8 | 
14 | COC(=O)CCc1ccc(OCC(O)CNC(C)C)cc1 (centres unmarked) [esmolol hydrochloride] | 2.7 µg/mL |  | inhibited only HAT1 | 
15 | CCc1cccc(CC)c1NC(=O)CN(CC(=O)O)CC(=O)O [etifenin] | 5.0 µg/mL |  | inhibited only HAT1 | 
16 | CCC(=O)O[C@@H](O[P@](=O)(CCCCc1ccccc1)CC(=O)N1C[C@H](C2CCCCC2)C[C@H]1C(=O)O)C(C)C [fosinopril] | 4 µg/mL |  |  | 
17 | C[N+]1(C)CCC(OC(=O)C(O)(c2ccccc2)C2CCCC2)C1 (centres unmarked) [glycopyrrolate] |  | inhibited only KAT8 |  | 
18 | C[C@@H](O)[C@H]1C(=O)N2C(C(=O)O)=C(SCCN=CN)C[C@H]12 [imipenem] | 82.8 µg/mL |  |  | 
19 | O=C([O-])c1ccccc1-c1c2cc(Br)c(=O)cc-2oc2[c]([Hg+])c([O-])c(Br)cc12.[Na+].[Na+].[OH-] [merbromin] |  | inhibited only KAT8 |  | maximum effective blood concentration (Cmax) [1, 7]: 2%
20 | Cc1cc(C(C)(C)CC(C)(C)C)ccc1OCCOCC[N+](C)(C)Cc1ccccc1.[Cl-] [methylbenzethonium chloride] | 1.93 µg/mL | inhibited function of both HAT1 and KAT8 | inhibited function of both HAT1 and KAT8 | inhibitory effect on expression of KAT8 (KAT8 [4]): inhibitory effect; maximum effective blood concentration (Cmax) [1, 7]: 0.3%; inhibitory effect on expression of HAT1 (HAT1 [5]): inhibitory effect
21 | CO[C@]12C[C@@H](COC(=O)c3cncc(Br)c3)CN(C)[C@@H]1Cc1cn(C)c3cccc2c13 [nicergoline] | 96 ng eq./mL |  | inhibited only HAT1 | 
22 | CN(C(=O)CN(CCO)CC(=O)N(C)C(C)(C)Cc1ccccc1)C(C)(C)Cc1ccccc1 [oxethazaine] | 1 µg/mL |  | inhibited only HAT1 | 
23 | C=CCOc1ccccc1OCC(O)CNC(C)C (centres unmarked) [oxprenolol hydrochloride] | 0.3 µg/mL | inhibited function of both HAT1 and KAT8 | inhibited function of both HAT1 and KAT8 | maximum effective blood concentration ([1]; commercially available medicine): 30.18 µg/µL
24 | CCCN1C[C@H](CSC)C[C@@H]2c3cccc4[nH]cc(c34)C[C@H]21 [pergolide mesylate] | 0.026 µg/mL | inhibited only KAT8 |  | 
25 | CC(N/C(=N\C#N)Nc1ccncc1)C(C)(C)C (centres unmarked) [pinacidil] | 2.5 µg/mL |  | inhibited only HAT1 | 
26 | CC(C(=O)O)c1ccc(C(=O)c2cccs2)cc1 (centres unmarked) [suprofen] |  |  | inhibited only HAT1 | maximum effective blood concentration (Cmax) [1, 7]: 1%
27 | CN[C@H](CC(C)C)C(=O)N[C@H]1C(=O)N[C@@H](CC(N)=O)C(=O)N[C@H]2C(=O)N[C@H]3C(=O)N[C@H](C(=O)N[C@H](C(=O)O)c4cc(O)cc(O)c4-c4cc3ccc4O)[C@H](O)c3ccc(c(Cl)c3)Oc3cc2cc(c3O[C@@H]2O[C@H](CO)[C@@H](O)[C@H](O)[C@H]2O[C@H]2C[C@](C)(N)[C@H](O)[C@H](C)O2)Oc2ccc(cc2Cl)[C@H]1O [vancomycin hydrochloride] | 30 µg/mL | inhibited function of both HAT1 and KAT8 | inhibited function of both HAT1 and KAT8 | 
28 | clofilium tosylate | 0.11 µg/mL |  | inhibited only HAT1 | 
29 | colistin sulfate | 4.4 µg/mL | inhibited function of both HAT1 and KAT8 | inhibited function of both HAT1 and KAT8 | inhibitory effect on expression of KAT8 (KAT8 [4]): inhibitory effect; inhibitory effect on expression of HAT1 (HAT1 [5]): inhibitory effect
